In ChEMBL document CHEMBL5050844 (2019):

Columns and labels:
[1] = Induction of anti-CD3/CD28 antibodies-stimulated human T cell activation at 0.3 uM assessed fold increase in CD25 expression measured by ELISA assay; assay type: functional, T cell line
[2] = Induction of anti-CD3/CD28 antibodies-stimulated human T cell activation at 1 uM assessed fold increase in CD25 expression measured by ELISA assay; assay type: functional, T cell line
[3] = Induction of anti-CD3 antibodies-stimulated human T cell activation at 8 uM assessed fold increase in CD25 expression measured by ELISA assay; assay type: functional, T cell line; further: reference of the scale not given here
[4] = Induction of anti-CD3 antibodies-stimulated human T cell activation at 8 uM assessed fold increase in IL-2 secretion measured by ELISA assay; assay type: functional, T cell line; further: reference of the scale not given here
[5] = Induction of anti-CD3 antibodies-stimulated human T cell activation at 1 uM assessed fold increase in CD25 expression measured by ELISA assay; assay type: functional, T cell line; further: reference of the scale not given here
[6] = Induction of anti-CD3 antibodies-stimulated human T cell activation at 1 uM assessed fold increase in IL-2 secretion measured by ELISA assay; assay type: functional, T cell line; further: reference of the scale not given here
[7] = Induction of anti-CD3/CD28 antibodies-stimulated human T cell activation at 0.3 uM assessed fold increase in IL-2 secretion measured by ELISA assay; assay type: functional, T cell line
[8] = Induction of anti-CD3/CD28 antibodies-stimulated human T cell activation at 4 uM assessed fold increase in IL-2 secretion measured by ELISA assay; assay type: functional, T cell line
[9] = Induction of anti-CD3/CD28 antibodies-stimulated human T cell activation at 4 uM assessed fold increase in CD25 expression measured by ELISA assay; assay type: functional, T cell line
[10] = Induction of anti-CD3/CD28 antibodies-stimulated human T cell activation at 1 uM assessed fold increase in IL-2 secretion measured by ELISA assay; assay type: functional, T cell line
[11] = target: E3 ubiquitin-protein ligase CBL-B (Homo sapiens, UniProt Q13191); test: Inhibition of N-terminal Avi-tagged human CBL-B (36 to 427 residues) incubated with 60 nM Src kinase for 1.5 hrs followed by incubation with fluorescently labeled UbcH5B-Ub for 1 hr and measured by TR-FRET assay; assay type: single protein
Sequence of E3 ubiquitin-protein ligase CBL-B (Q13191 whole entry, the tested form may be a part): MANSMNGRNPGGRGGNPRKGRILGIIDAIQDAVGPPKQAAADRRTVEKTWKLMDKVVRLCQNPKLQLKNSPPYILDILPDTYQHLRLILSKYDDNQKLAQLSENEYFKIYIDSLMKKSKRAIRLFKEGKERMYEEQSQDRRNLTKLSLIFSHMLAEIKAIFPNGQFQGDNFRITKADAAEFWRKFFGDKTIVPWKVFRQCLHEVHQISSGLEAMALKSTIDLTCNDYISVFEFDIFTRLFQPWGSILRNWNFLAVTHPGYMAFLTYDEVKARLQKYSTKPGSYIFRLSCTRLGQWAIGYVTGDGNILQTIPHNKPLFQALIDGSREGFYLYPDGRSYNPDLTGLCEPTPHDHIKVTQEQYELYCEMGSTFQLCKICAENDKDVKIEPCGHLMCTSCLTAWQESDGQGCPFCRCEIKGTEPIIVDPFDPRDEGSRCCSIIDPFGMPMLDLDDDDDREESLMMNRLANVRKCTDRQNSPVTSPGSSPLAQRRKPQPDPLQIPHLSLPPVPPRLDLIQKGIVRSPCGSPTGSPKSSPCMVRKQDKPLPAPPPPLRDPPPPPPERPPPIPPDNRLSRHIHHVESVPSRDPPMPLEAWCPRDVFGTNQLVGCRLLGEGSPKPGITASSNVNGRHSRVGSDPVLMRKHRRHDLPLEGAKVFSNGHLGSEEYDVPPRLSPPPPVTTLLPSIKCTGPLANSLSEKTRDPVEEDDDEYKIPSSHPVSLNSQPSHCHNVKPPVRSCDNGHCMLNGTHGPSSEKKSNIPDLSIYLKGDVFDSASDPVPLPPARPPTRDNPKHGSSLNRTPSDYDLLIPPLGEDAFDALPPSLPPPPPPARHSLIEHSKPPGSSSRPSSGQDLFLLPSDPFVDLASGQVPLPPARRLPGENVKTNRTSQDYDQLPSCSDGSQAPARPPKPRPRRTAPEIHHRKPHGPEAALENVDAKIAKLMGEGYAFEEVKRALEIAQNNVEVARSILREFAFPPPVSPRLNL

SMILES | fold change (FC) [1] | fold change (FC) [2] | fold change (FC) [3] | fold change (FC) [4] | fold change (FC) [5] | fold change (FC) [6] | fold change (FC) [7] | fold change (FC) [8] | fold change (FC) [9] | fold change (FC) [10] | fold change (FC) ([3]; 8 µM) | fold change (FC) ([6]; 1 µM) | fold change (FC) ([7]; 0.3 µM) | fold change (FC) ([8]; 4 µM) | fold change (FC) ([10]; 1 µM) | IC50 [11]
Cn1cnnc1[C@@H](F)[C@](C)(F)c1cccc(N2Cc3c(cccc3C(F)(F)F)C2=O)c1 (single isomer, unassigned) | 1.01 | 1.01 | 0.601 | 0.051 | <=0.6 | <=0.05 | 1.01 | 1.01 | 1.01 | 1.01 |  |  |  |  |  | 
C[C@H](Cc1nncn1C)c1cc(NC2CCC2)nc(N2Cc3c(cccc3C(F)(F)F)C2=O)c1 | 1.01 | 1.01 | >=1.001 | 0.151 | 0.601 | <=0.05 | 1.01 | 1.01 | 1.01 | 1.01 |  |  |  |  |  | 
C[C@H](Cc1nncn1C1CC1)c1cccc(N2Cc3c(cccc3C(F)(F)F)C2=O)c1 | 1.01 | 1.01 | 0.801 | <=0.05 | 0.601 | <=0.05 | <=1 | 1.01 | 1.01 | 1.01 |  |  |  |  |  | 
CC(Sc1nncn1C)c1cc(F)cc(N2Cc3c(cccc3C(F)(F)F)C2=O)c1 (configuration not stated) | <=1 | <=1 | 0.601 | 0.051 | 0.801 | <=0.05 | 1.01 | 1.01 | 1.01 | 1.01 |  |  |  |  |  | 
Cc1conc1C[C@@H](C)c1cccc(N2Cc3c(cccc3C(F)(F)F)C2=O)c1 | 1.01 | <=1 | 0.801 | 0.151 | 0.601 | 0.051 | <=1 | 1.01 | 1.01 | <=1 |  |  |  |  |  | 
C[C@H](Sc1nncn1C)c1cccc(NC(=O)c2cc(C(C)(C)O)cc(C(F)(F)F)n2)c1 | 1.01 | 1.01 | >=1.001 | <=0.05 | 0.601 | <=0.05 | <=1 | 1.01 | 1.01 | <=1 |  |  |  |  |  | 
C[C@H](Cc1nncn1C)c1cccc(NC(=O)c2ccn3nccc3n2)c1 | 1.01 | 1.01 | >=1.001 | 0.151 | 0.601 | 0.051 | 1.01 | 2.51 | 1.01 | 1.01 |  |  |  |  |  | 
Cn1cnnc1C(F)(F)[C@](C)(F)c1cccc(N2Cc3c(cc(CN4CC(C#N)C4)cc3C(F)(F)F)C2=O)c1 | 1.01 | 1.01 | >=1.001 | 0.101 | 0.801 | 0.051 | 1.01 | 5 | 1.01 | 2.51 |  |  |  |  |  | 
Cc1nc(C(=O)Nc2cccc([C@H](C)Sc3nncn3C)c2)ccc1Cl | <=1 | 1.01 | 0.801 | 0.051 | <=0.6 | <=0.05 | 2.51 | >=7.5 | 1.01 | 5 |  |  |  |  |  | 
C[C@H](Cc1nncn1C)c1cccc(NC(=O)c2cc(C(C)(C)O)c(Cl)cn2)c1 | 1.01 | 1.31 | <=0.6 | 0.101 | <=0.6 | 0.051 | 2.51 | 5 | >=1.76 | 1.01 |  |  |  |  |  | 
C[C@H](Sc1nncn1C)c1cccc(NC(=O)c2cc(C(C)(C)O)c(Cl)cn2)c1 | 1.01 | 1.01 | 0.601 | <=0.05 | <=0.6 | <=0.05 | 1.01 | 1.01 | 1.01 | 1.01 |  |  |  |  |  | 
C[C@H](Cc1nncn1C)c1cc(NC2CCOC2)nc(N2Cc3c(cccc3C(F)(F)F)C2=O)c1 (single isomer, unassigned) | <=1 | 1.01 | 0.801 | 0.151 | 0.601 | 0.051 | 1.01 | 1.01 | 1.01 | 1.01 |  |  |  |  |  | 
C[C@H](Cc1nnc[nH]1)c1cccc(N2Cc3c(cccc3C(F)(F)F)C2=O)c1 | 1.01 | 1.31 | <=0.6 | <=0.05 | <=0.6 | <=0.05 | <=1 | 1.01 | 1.31 | <=1 |  |  |  |  |  | 
C[C@@H](c1cccc(N2Cc3c(cccc3C(F)(F)F)C2=O)c1)[C@H](F)c1nncn1C (relative stereo) | 1.01 | 1.01 | 0.801 | >=0.201 | 0.601 | 0.101 | 2.51 | 2.51 | 1.01 | 2.51 |  |  |  |  |  | 
C[C@H](Cc1nncn1C)c1cccc(NC(=O)c2cc(C(=O)N3C[C@@H](O)[C@H](F)C3)ccn2)c1 | <=1 | 1.01 | 0.801 | >=0.201 | 0.601 | 0.151 | <=1 | 2.51 | 1.31 | 1.01 |  |  |  |  |  | 
C[C@@H](c1cccc(N2Cc3c(cccc3C(F)(F)F)C2=O)c1)C(F)(F)c1nncn1C | 1.01 | 1.01 | 0.801 | 0.101 | 0.601 | <=0.05 | 1.01 | 2.51 | 1.01 | 1.01 |  |  |  |  |  | 
Cn1cnnc1[C@H](F)[C@](C)(F)c1cccc(N2Cc3c(cc(C4CC4)cc3C(F)(F)F)C2=O)c1 | 1.01 | 1.01 | >=1.001 | 0.101 | 0.801 | 0.051 | <=1 | 2.51 | 1.01 | 1.01 |  |  |  |  |  | 
Cc1ncc(C(=O)Nc2cccc([C@H](C)Sc3nncn3C)c2)nc1C1CC1 | 1.31 | 1.31 | 0.801 | 0.051 | 0.801 | <=0.05 | <=1 | 2.51 | 1.51 | 1.01 |  |  |  |  |  | 
C[C@H](Cc1nncn1C)c1cccc(N2Cc3c(ccnc3C(C)(C)F)C2=O)c1 |  |  |  |  |  |  |  | >=7.5 |  |  |  |  |  |  |  | 
Cc1ccc(C(=O)Nc2cccc([C@@H](C)Cc3nccn3C)c2)nc1C1CC1 |  |  |  |  |  |  |  |  |  |  | 0.601 | <=0.05 | 1.01 | 1.01 | 1.01 | 
C[C@H](c1cc2c(c(C(F)(F)F)c1)CN(c1cccc(C3(Cc4nncn4C)COC3)c1)C2=O)N1CCC2(CC1)CC2 | 1.01 | 1.01 |  |  | >=1.001 | >=0.201 | >=7.5 |  |  | >=7.5 |  |  |  |  |  | < 100 nM
C[C@@H](c1cc2c(c(C(F)(F)F)c1)CN(c1cccc(C3(Cc4nncn4C)COC3)c1)C2=O)N1CC(C)(F)C1 | 1.31 | 1.51 |  |  | >=1.001 | >=0.201 | 2.51 |  |  | >=7.5 |  |  |  |  |  | < 100 nM
Cn1cnnc1CC1(c2cccc(N3Cc4c(cc(CN5CCC6(CC6)C5)cc4C(F)(F)F)C3=O)c2)CCC1 | 1.31 | 1.31 |  |  | >=1.001 | >=0.201 | >=7.5 |  |  | >=7.5 |  |  |  |  |  | < 100 nM
